Measured values published in US20100279976A1, “USE OF ARTEMISININ AND ITS DERIVATIVES IN CANCER THERAPY” (SHANGHAI INSTITUTES FOR BIOLOGICAL SCIENCES, CAS, priority 2009, published 2010).

Key:
[1] = tested on: 7702 normal human liver cells; experiment: MTT cell viability assay, normal liver cells; type: cell-based; conditions: 7702 cells, 48 h; for IC20: read-out: IC20 (concentration that reduces growth by 20%)
Description: (§1) The effects of ART derivatives on the viability of the aforementioned cells may be determined using the MTT assay. Briefly, 2,000 cells per well were plated in triplicate in 96-well plates. After a 24-h incubation, the cells may be treated with varying concentrations of ART derivatives (0, 1, 5, 10, 25, 50, and 100 μmol/L) for 48 h. The MTT assay may be performed according to the manufacture's instruction and the resultant formazan crystals may be dissolved in DMSO (100 μL). The absorbance may be then recorded at 540 nm. The effects of ART derivatives on cell viability may be assessed by comparing the percent cell viability of the treated cells with the vehicle (DMSO)-treated control cells, which may be arbitrarily assigned at 100% viability. The experiment may be repeated thrice under the same conditions.

[2] = tested on: Hep3B hepatoma cells (p53 null); experiment: MTT cell viability assay, Hep3B; type: cell-based; conditions: Homo sapiens, 48 h
Description: as §1

[3] = tested on: HepG2 cells; experiment: MTT growth inhibition time course, alone or with gemcitabine; type: cell-based; conditions: Homo sapiens, HepG2, 10 μmol/L
Description: In addition, the growth-inhibitory effects of ART and DHA and the effects in combination with gemcitabine in HepG2 and Hep3B cells may also be determined using the MTT assay. Briefly, 700 cells per well may be plated in 96-well culture plates. After a 24-h incubation, the cells may be treated with 10 μmol/L ART, 10 μmol/L DHA, 10 μg/L gemcitabine, 10 μmol/L ART plus 10 μg/L gemcitabine, or 10 μmol/L DHA plus 10 μg/L gemcitabine for various times (0, 24, 48, 72, and 96 h). The results reflect the average of three replicates.

[4] = tested on: HepG2 cells; experiment: Annexin V-FITC apoptosis assay, HepG2; type: cell-based, human
Description: (§2) ART- and DHA-induced apoptosis alone or in combination with gemcitabine in HepG2 and Hep3B cells or in combination with carboplatin in ovarian cancer cells may be determined by flow cytometry using the Annexin V-FITC Apoptosis Detection kit following the manufacturer's instructions. Briefly, 2×10^5 cells may be treated with ART and DHA (0, 1, 10, 25, and 50 mol/L) or 10 μg/L gemcitabine for 48 h. The cells may then be harvested, washed in PBS, and incubated with Annexin V and propidium iodide for staining in binding buffer at room temperature for 10 min in the dark. The stained cells may be analyzed using the FACSAria instrument.

[5] = tested on: IOSE144 immortalized non-tumorigenic ovarian surface epithelial cells; experiment: MTT cell viability assay, IOSE144; type: cell-based; conditions: Homo sapiens, IOSE-144, IOSE144, 48 hrs
Excerpt: Human ovarian IOSE144 (immortalized non-tumorigenic human ovarian surface epithelial cells) and ovarian carcinoma (A2780 and OVCAR-3) cells that may be obtained from the American Type Culture Collection (ATCC, Manassas, Va.) are gifts from Dr. Jing Fang (Institute for Nutritional Sciences, Shanghai, China). All cells may be cultured according to the ATCC instructions. The compounds (ARS, ART, ARM and DHA) may be dissolved in DMSO (<0.1%, final concentration).
as §1

[6] = tested on: ovarian cancer cells; experiment: MTT cell viability assay, ovarian cancer cells (line not specified); type: cell-based; conditions: Homo sapiens, 48 hrs, read-out: inhibition of viability
Description: as §1

[7] = tested on: A2780 cells; experiment: Annexin V-FITC apoptosis assay, A2780; type: cell-based, human; conditions: A2780, 50 μM, 24 hrs
Description: as §2, with “Briefly, 2×10^5 cells may be treated with ART and DHA (0, 1, 10, 25, and 50 mol/L) or 10 μg/L gemcitabine for 48 h.” left out

[8] = tested on: OVCAR-3 cells; experiment: Annexin V-FITC apoptosis assay, OVCAR-3; type: cell-based, human; conditions: for increase in apoptosis versus control: 24 hrs
Description: as §2, with “Briefly, 2×10^5 cells may be treated with ART and DHA (0, 1, 10, 25, and 50 mol/L) or 10 μg/L gemcitabine for 48 h.” left out

[9] = tested on: OVCAR-3 xenograft tumors; experiment: OVCAR-3 xenograft model in nude mice; type: in vivo; conditions: 5 days/week
Description: Four to six week old female athymic nude mice (BALB/c, nu/nu) may be purchased from Shanghai Experimental Animal Center (Shanghai, China). Animal studies are approved by the Institute for Nutritional Sciences. The tumor xenograft model may be established as follows. Briefly, A2780 and OVCAR-3 cells may be harvested and re-suspended in serum-free RPMI 1640 medium containing 20% (v/v) Matrigel (BD Biosciences, Bedford, Mass., USA). Aliquots of cells (˜5×10^6 cells/0.2 ml) may be injected subcutaneously into the left inguinal area of the mice. The tumor growth and body weight of the mice may be monitored every other day. Tumor mass may be determined. Mice bearing palpable tumors (˜70 mg) may be randomly divided into treatment and control groups n=5 mice/group). CBP may be dissolved in saline, and DHA may be dissolved in cremophor EL:ethanol:saline (5:5:90, v/v/v). DHA may be administered via i.p. injection at doses of 10 and 25 mg/kg/5 days/week for 3 weeks) alone or combined with CBP (at a single dose of 120 mg/kg, once on day 0). The control group receives saline only. Mice may be killed on day 18. Tumors may be carefully excised, trimmed of extraneous fat or connective tissue, and homogenized in RIPA buffer (100 mg tumor tissue/1 ml RIPA) and prepared for immunoblotting analysis as described above.

SMILES	IC80 ([1]; Homo sapiens) [µM]	IC20 ([1]; Homo sapiens) [µM]	IC20 [2] [µM]	IC50 [2] [µM]	IC80 [2] [µM]	inhibition at 10 µM ([3]; 24 h, vs vehicle-treated cells) [%]	inhibition at 10 µM ([3]; 48 h) [%]	inhibition at 10 µM ([3]; 72 h) [%]	IC20 [5] [µM]	IC50 [5] [µM]	IC80 [5] [µM]	further results
C[C@@H]1CC[C@H]2[C@@H](C)C(=O)O[C@@H]3O[C@@]4(C)CC[C@@H]1[C@]32OO4 [ART, artemisinin]	> 500	3.6	0.97	10.4	113	69	92	96	5.6	> 500	> 500	IC50 [1]: 60.9 µM; IC50 ([1]; Homo sapiens): ≥ 60.9 µM; apoptotic cells ([4]; HepG2, 1 μmol/L, 48 h (0 μmol/L: 7%)): 9%; apoptotic cells ([4]; HepG2, 10 μmol/L, 48 h): 14.95%; apoptotic cells ([4]; HepG2, 25 μmol/L, 48 h): 15.45%; apoptotic cells ([4]; HepG2, 50 μmol/L, 48 h): 16.45%
C[C@H]1[C@@H](O)O[C@@H]2O[C@@]3(C)CC[C@H]4[C@H](C)CC[C@@H]1[C@@]24OO3 [DHA, dihydroartemisinin]	> 500	3.8	0.96	10.3	111	74	93	97	1.84	106	> 500	cytotoxicity at 1 µM ([6]; 1 μM): 24%; cytotoxicity at 500 µM ([6]; 500 μM): 95%; increase in apoptosis versus control [7]: 17 fold; increase in apoptosis versus control ([8]; OVCAR-3, 25 μM): 18 fold; increase in apoptosis versus control ([8]; OVCAR-3, 50 μM): 22 fold; rate of apoptosis (control regarded as 100%) ([8]; OVCAR-3, 24 hrs, DHA 1 μM, CBP 500 μM, alone or combined): 266%; tumor growth inhibition ([9]; DHA 10 mg/kg i.p.): 14%; tumor growth inhibition ([9]; DHA 25 mg/kg i.p.): 37%
